For the assay, the target named is Endoplasmic reticulum chaperone BiP (Homo sapiens, UniProt P11021). Put plainly: Inhibition of 2-deoxyglucose-induced GRP78 (unknown origin) expression transfected in human HT1080 cells by luciferase reporter gene assay. On the technique in general: In a reporter assay the amount or activity of a reporter protein is the signal.
Chain of Endoplasmic reticulum chaperone BiP (P11021 whole entry): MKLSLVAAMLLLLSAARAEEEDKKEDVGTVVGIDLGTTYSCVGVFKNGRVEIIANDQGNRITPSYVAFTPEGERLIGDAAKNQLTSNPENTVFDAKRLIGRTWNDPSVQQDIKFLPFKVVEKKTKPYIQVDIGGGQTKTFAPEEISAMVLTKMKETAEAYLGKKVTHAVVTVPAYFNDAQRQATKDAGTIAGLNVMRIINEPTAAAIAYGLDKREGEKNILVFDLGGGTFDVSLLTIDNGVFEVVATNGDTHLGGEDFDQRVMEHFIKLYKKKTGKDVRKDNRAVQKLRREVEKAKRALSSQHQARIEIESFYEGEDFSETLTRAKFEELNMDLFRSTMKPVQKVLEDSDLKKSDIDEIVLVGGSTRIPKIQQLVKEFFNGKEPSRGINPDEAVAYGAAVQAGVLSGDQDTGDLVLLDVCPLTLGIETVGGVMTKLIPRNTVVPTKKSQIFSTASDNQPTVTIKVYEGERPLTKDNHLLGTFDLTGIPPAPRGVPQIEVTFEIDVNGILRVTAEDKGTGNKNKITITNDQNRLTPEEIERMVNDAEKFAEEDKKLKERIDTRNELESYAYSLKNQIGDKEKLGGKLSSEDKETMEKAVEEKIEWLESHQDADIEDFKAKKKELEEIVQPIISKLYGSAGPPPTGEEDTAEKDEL

Consider `CC/C1=C/[C@H](CO)C[C@@H](C)[C@H](O[C@H]2C[C@H](O)[C@H](O[C@@H]3O[C@@H](C)[C@H](O[C@H]4C[C@H](O)[C@H](O)[C@@H](C)O4)[C@@H](OC)[C@H]3O)[C@@H](C)O2)[C@H](C)CCC[C@]2(C)C=C(C)[C@H](C)C[C@]23OC(=O)C(=C3O)C(=O)[C@@]2(CC)[C@H]3[C@H](C=C(C)[C@@H]12)[C@@H](O)CC(=O)[C@@H]3C`, for which the IC50 – broadly, the concentration at which inhibition is half-maximal – came out at 300 nM.

The values are drawn from BindingDB's records for doi:10.1021/np500757w (University of California San Diego, 2015).
